# Source: PubChem BioAssay (NCI)
#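 All cell lines were grown in 96-well plates and treated with compound for 48 hours. GI50 marks 50% less growth. TGI: concentration producing complete growth inhibition.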
# Key:
# Experiment in all cases: inhibition of tumour cell growth, NCI panel, 48 h
# RXF 393 renal = system: RXF 393 renal
# HCC-2998 colon = system: HCC-2998 colon
# SF-539 CNS = system: SF-539 CNS
# UACC-257 melanoma = system: UACC-257 melanoma
# MCF7 breast = system: MCF7 breast
# SK-MEL-28 melanoma = system: SK-MEL-28 melanoma
# HT29 colon = system: HT29 colon
# SK-MEL-2 melanoma = system: SK-MEL-2 melanoma
# OVCAR-3 ovarian = system: OVCAR-3 ovarian
# NCI-H23 lung = system: NCI-H23 lung
# OVCAR-5 ovarian = system: OVCAR-5 ovarian
# OVCAR-4 ovarian = system: OVCAR-4 ovarian
# SNB-75 CNS = system: SNB-75 CNS
# EKVX NSCLC = system: EKVX NSCLC
# MDA-MB-435 = system: MDA-MB-435
# SR leukemia = system: SR leukemia
# U251 CNS = system: U251 CNS
# SK-MEL-5 melanoma = system: SK-MEL-5 melanoma
# HCT-116 colon = system: HCT-116 colon
# NCI-H522 lung = system: NCI-H522 lung
# HL-60(TB) leukemia = system: HL-60(TB) leukemia
# UACC-62 melanoma = system: UACC-62 melanoma
# COLO 205 colon = system: COLO 205 colon
# MOLT-4 leukemia = system: MOLT-4 leukemia
# OVCAR-8 ovarian = system: OVCAR-8 ovarian
# HCT-15 colon = system: HCT-15 colon
# IGROV1 ovarian = system: IGROV1 ovarian
# PC-3 prostate = system: PC-3 prostate
# BT-549 breast = system: BT-549 breast
compound,measurement,setting,value
ClCCn1cnc2c(SCc3ccccc3Cl)ncnc21,GI50,RXF 393 renal,1.35 µM
same,TGI,RXF 393 renal,26.4 µM
same,GI50,HCC-2998 colon,1.75 µM
same,GI50,SF-539 CNS,0.267 µM
same,TGI,SF-539 CNS,68.8 µM
same,GI50,UACC-257 melanoma,2.64 µM
same,GI50,MCF7 breast,0.446 µM
same,TGI,MCF7 breast,> 100 µM
same,GI50,SK-MEL-28 melanoma,5.3 µM
same,TGI,SK-MEL-28 melanoma,> 83.8 µM
same,GI50,HT29 colon,0.191 µM
same,TGI,HT29 colon,> 100 µM
same,GI50,SK-MEL-2 melanoma,12.7 µM
same,TGI,SK-MEL-2 melanoma,54.4 µM
same,GI50,OVCAR-3 ovarian,9.31 µM
same,TGI,OVCAR-3 ovarian,29.8 µM
same,GI50,NCI-H23 lung,9.69 µM
same,TGI,NCI-H23 lung,> 73.7 µM
same,GI50,OVCAR-5 ovarian,37.8 µM
same,TGI,OVCAR-5 ovarian,> 100 µM
same,GI50,OVCAR-4 ovarian,14.4 µM
same,TGI,OVCAR-4 ovarian,> 100 µM
same,GI50,SNB-75 CNS,6.69 µM
same,TGI,SNB-75 CNS,> 63.2 µM
same,GI50,EKVX NSCLC,13.8 µM
same,TGI,EKVX NSCLC,> 78 µM
same,GI50,MDA-MB-435,0.779 µM
same,TGI,MDA-MB-435,50.7 µM
same,GI50,SR leukemia,0.0609 µM
same,TGI,SR leukemia,13.1 µM
same,GI50,U251 CNS,0.0925 µM
same,TGI,U251 CNS,> 89.8 µM
same,GI50,SK-MEL-5 melanoma,0.272 µM
same,TGI,SK-MEL-5 melanoma,43.3 µM
same,GI50,HCT-116 colon,0.0679 µM
same,TGI,HCT-116 colon,21 µM
same,GI50,NCI-H522 lung,2.64 µM
same,TGI,NCI-H522 lung,> 71.1 µM
same,GI50,HL-60(TB) leukemia,0.416 µM
same,TGI,HL-60(TB) leukemia,8.94 µM
same,GI50,UACC-62 melanoma,0.529 µM
same,TGI,UACC-62 melanoma,> 48.1 µM
same,GI50,COLO 205 colon,2.01 µM
same,TGI,COLO 205 colon,> 100 µM
same,GI50,MOLT-4 leukemia,0.176 µM
same,TGI,MOLT-4 leukemia,9.4 µM
same,GI50,OVCAR-8 ovarian,0.576 µM
same,TGI,OVCAR-8 ovarian,> 90.5 µM
same,GI50,HCT-15 colon,0.0383 µM
same,TGI,HCT-15 colon,> 100 µM
same,GI50,IGROV1 ovarian,0.51 µM
same,TGI,IGROV1 ovarian,> 41.6 µM
same,GI50,PC-3 prostate,0.717 µM
same,TGI,PC-3 prostate,46.6 µM
same,GI50,BT-549 breast,8.79 µM
